In one assay the target is T1, rat GPR14 (U-II receptor) (Rattus norvegicus, UniProt P49684).
T1 construct: expressed in transfected cells
T1 sequence (P49684 1-386): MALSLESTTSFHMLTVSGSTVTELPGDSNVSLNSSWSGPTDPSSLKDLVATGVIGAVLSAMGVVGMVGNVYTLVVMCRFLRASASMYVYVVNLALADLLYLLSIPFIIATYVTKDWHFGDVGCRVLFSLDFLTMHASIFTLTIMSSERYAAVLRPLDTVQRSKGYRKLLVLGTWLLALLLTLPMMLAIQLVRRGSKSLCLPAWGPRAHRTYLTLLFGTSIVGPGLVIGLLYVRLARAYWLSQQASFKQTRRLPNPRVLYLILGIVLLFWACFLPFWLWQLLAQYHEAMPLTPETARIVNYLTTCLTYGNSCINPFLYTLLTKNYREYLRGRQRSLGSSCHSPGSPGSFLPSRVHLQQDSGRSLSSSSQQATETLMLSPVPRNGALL
The experiment in a line: Rat UII Calcium Mobilization FLIPR Assay. As to conditions: CHO, 5 min, 10 μM compound; agonist-induced Ca2+ mobilization (FLIPR), CHO cells with rat UII receptor; read-out: % I @ 10. The class given is cell-based. An excerpt: To derive these cells, the complete coding sequence of rat U-II (Genbank Accession No. U32673) was amplified by nested PCR from rat heart marathon-Ready cDNA. […] The PCR products were cloned into pcDNA3 (Invitrogen) digested with EcoR I and Xba I. Clones containing rat U-II receptor were verified by complete sequencing of the U-II receptor insert to ensure a lack of PCR-introduced errors. The constructed vector was transfected into CHO cells by using lipofectamine (GIBCO BRL). CHO cells with high expression of rat U-II receptor were selected and established as stable cell lines by using G418. CHO cells were seeded at 25,000 cells per well into 96-well, black-wall, clear-bottom microtiter plates 24 h before assay. Cells in culture media (DMEM/F12 containing 15 mM HEPES, L-glutamine, pyridoxine hydrochloride; 10% fetal bovine serum; 1 mg/mL G418 sulfate; antibiotic-antimycotic; pH 7.4) were loaded with proprietary dye, from the FLIPR Calcium Assay Kit (Molecular Devices), prepared in assay buffer (Hanks Balanced Salts Solution, 20 mM HEPES, 0.1% BSA, 2.5 mM probenecid, pH 7.4), and incubated for 1 h at 37° C. Calcium mobilization determinations were performed at room temperature (23° C.).
(In general: Calcium flux is commonly read through the fluorescence of an indicator in the cells.)
`COc1ccc(C(CCCNS(=O)(=O)c2ccc(Cl)s2)N2C(=O)c3cccc(N4CCN([C@H](C)c5ccccc5)CC4)c3C2=O)cc1OC` (stereo partly drawn) [Cpd 71, 5-chloro-thiophene-2-sulfonic acid (4-(3,4-dimethoxy-phenyl)-4-{1,3-dioxo-4-[4-(1R)-(1-phenyl-ethyl)-piperazin-1-yl]-1,3-dihydro-isoindol-2-yl}-butyl)-amide]: the inhibition at 10 µM stood at 58%.

Staying with this assay, now noted: CHO, 5 min, 50 μM compound; agonist-induced Ca2+ mobilization (FLIPR), CHO cells with rat UII receptor; read-out: % I @ 50.
With `COc1ccc(C(CCCNS(=O)(=O)c2ccc(Cl)s2)N2C(=O)c3cccc(N4CCN([C@H](C)c5ccccc5)CC4)c3C2=O)cc1OC` (stereo partly drawn) [Cpd 71, 5-chloro-thiophene-2-sulfonic acid (4-(3,4-dimethoxy-phenyl)-4-{1,3-dioxo-4-[4-(1R)-(1-phenyl-ethyl)-piperazin-1-yl]-1,3-dihydro-isoindol-2-yl}-butyl)-amide], the inhibition at 50 µM came to 37%.

Still in this assay, the particulars now being: Inhibition of Acetyl-cyclic[Cys-Phe-Trp-Lys-(2-Nal)-Cys]-NH2 induced Ca2+ mobilization (FLIPR) in CHO cells transfected with rat UII receptor; read-out: IC50.
As to `COc1ccc(C(CCCNS(=O)(=O)c2ccc(Cl)s2)N2C(=O)c3cccc(N4CCN([C@H](C)c5ccccc5)CC4)c3C2=O)cc1OC` (stereo partly drawn) [Cpd 71, 5-chloro-thiophene-2-sulfonic acid (4-(3,4-dimethoxy-phenyl)-4-{1,3-dioxo-4-[4-(1R)-(1-phenyl-ethyl)-piperazin-1-yl]-1,3-dihydro-isoindol-2-yl}-butyl)-amide], the IC50 (usually the midpoint of a concentration-inhibition curve) is 1.7 µM.

Still in this assay, the particulars now being: average value for the compound tested; read-out: Rat UII FLIPR Average IC50.
Regarding `COc1ccc(CN2C(=O)c3cccc(N4CCN(CC(C)C)CC4)c3C2=O)cc1OC` [Cpd 82, 2-(3,4-dimethoxy-benzyl)-4-(4-isobutyl-piperazin-1-yl)-isoindole-1,3-dione], the half-maximal inhibitory concentration (IC50) amounted to 4.7 µM. On the same count and under the same terms, under `COc1ccc(CN2C(=O)c3cccc(N4CCN(Cc5ccccn5)CC4)c3C2=O)cc1OC` [Cpd 84, 2-(3,4-dimethoxy-benzyl)-4-(4-pyridin-2-ylmethyl-piperazin-1-yl)-isoindole-1,3-dione] stands 2.8 µM; under `COc1ccc(C(CCCNS(=O)(=O)c2cc(S(=O)(=O)c3ccccc3)cs2)N2C(=O)c3cccc(N4CCN([C@H](C)c5ccccc5)CC4)c3C2=O)cc1OC` (stereo partly drawn) [Cpd 92, 4-benzenesulfonyl-thiophene-2-sulfonic acid (4-(3,4-dimethoxy-phenyl)-4-{1,3-dioxo-4-[4-(1R)-(1-phenyl-ethyl)-piperazin-1-yl]-1,3-dihydro-isoindol-2-yl}-butyl)-amide], 0.92 µM.

Take `COc1ccc(C(CCCNS(=O)(=O)c2ccc(Br)s2)N2C(=O)c3cccc(N4CCN([C@H](C)c5ccccc5)CC4)c3C2=O)cc1OC` (stereo partly drawn) [Cpd 100, 5-bromo-thiophene-2-sulfonic acid (4-(3,4-dimethoxy-phenyl)-4-{1,3-dioxo-4-[4-(1R)-(1-phenyl-ethyl)-piperazin-1-yl]-1,3-dihydro-isoindol-2-yl}-butyl)-amide]: the IC50 worked out at 0.57 µM. `COc1ccc(C(CCCNS(=O)(=O)C=Cc2ccccc2)N2C(=O)c3cccc(N4CCN([C@H](C)c5ccccc5)CC4)c3C2=O)cc1OC` (stereo partly drawn) [Cpd 111, 2-phenyl-ethenesulfonic acid (4-(3,4-dimethoxy-phenyl)-4-{1,3-dioxo-4-[4-(1R)-(1-phenyl-ethyl)-piperazin-1-yl]-1,3-dihydro-isoindol-2-yl}-butyl)-amide]: the IC50 amounted to 0.15 µM.

On to `COc1ccc(C(CCCNS(=O)(=O)c2cc(Cl)sc2Cl)N2C(=O)c3cccc(N4CCN([C@H](C)c5ccccc5)CC4)c3C2=O)cc1OC` (stereo partly drawn) [Cpd 113, 2,5-dichloro-thiophene-3-sulfonic acid (4-(3,4-dimethoxy-phenyl)-4-{1,3-dioxo-4-[4-(1R)-(1-phenyl-ethyl)-piperazin-1-yl]-1,3-dihydro-isoindol-2-yl}-butyl)-amide], for which the IC50 was 2.6 µM. On to `COc1ccc(C(CCCNS(=O)(=O)c2csc3ccccc23)N2C(=O)c3cccc(N4CCN([C@H](C)c5ccccc5)CC4)c3C2=O)cc1OC` (stereo partly drawn) [Cpd 116, benzo[b]thiophene-3-sulfonic acid (4-(3,4-dimethoxy-phenyl)-4-{1,3-dioxo-4-[4-(1R)-(1-phenyl-ethyl)-piperazin-1-yl]-1,3-dihydro-isoindol-2-yl}-butyl)-amide], for which the IC50 turned out to be 1.4 µM. Still for that read-out and setting: the result for `COc1ccc(C(CCCNC(=O)Nc2cccs2)N2C(=O)c3cccc(N4CCN([C@H](C)c5ccccc5)CC4)c3C2=O)cc1OC` (stereo partly drawn) [Cpd 120, 1-(4-(3,4-dimethoxy-phenyl)-4-{1,3-dioxo-4-[4-(1R)-(1-phenyl-ethyl)-piperazin-1-yl]-1,3-dihydro-isoindol-2-yl}-butyl)-3-thiophen-2-yl-urea] reads 0.31 µM; that for `COc1ccc(C(CCNC(=O)Nc2cccs2)N2C(=O)c3cccc(N4CCN([C@H](C)c5ccccc5)CC4)c3C2=O)cc1OC` (stereo partly drawn) [Cpd 121, 1-(3-(3,4-dimethoxy-phenyl)-3-{1,3-dioxo-4-[4-(1R)-(1-phenyl-ethyl)-piperazin-1-yl]-1,3-dihydro-isoindol-2-yl}-propyl)-3-thiophen-2-yl-urea], 0.27 µM.

The values are drawn from patent US8193191B2, “Urotensin II receptor antagonists” (Janssen Pharmaceutica N.V., priority 2006, dated 2012).
